Test results published in PubChem BioAssay AID248 (DTP/NCI, 2004).
Where “and” joins values, the source holds several entries; their conditions need not be identical. Identical values can stand only once. Toxic doses and inconclusive results are not listed. Cut-off read from the data, not from the text of the source: active = T/C of 150% or more; inactive = T/C below 125%.

System: L1210 leukemia ip in BDF1 mice, survival T/C
Experiment: NCI In Vivo Anticancer Drug Screen. Data for tumor model L1210 Leukemia (intraperitoneal) in B6D2F1 (BDF1) mice
Conditions: endpoint: mean survival time, higher = longer survival
Outline: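 Each compound was tested against a transplantable tumor grown in mice. The endpoint was survival, with treated animals benchmarked against vehicle controls as a simple ratio.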

[1] = dose: 100.0 mg/kg/injection, schedule: Q01DX009 (ip), vehicle: saline
[2] = dose: 100.0 mg/kg/injection, schedule: Q04DX002 (ip), vehicle: Klucel (hydroxypropylcellulose) (HPC)
[3] = dose: 200.0 mg/kg/injection, schedule: Q04DX002 (ip), vehicle: Klucel (hydroxypropylcellulose) (HPC)
[4] = dose: 400.0 mg/kg/injection, schedule: Q04DX002 (ip), vehicle: Klucel (hydroxypropylcellulose) (HPC)
[5] = dose: 100.0 mg/kg/injection, schedule: Q04DX002 (ip), vehicle: saline with Tween-80
[6] = dose: 200.0 mg/kg/injection, schedule: Q04DX002 (ip), vehicle: saline with Tween-80
[7] = dose: 400.0 mg/kg/injection, schedule: Q04DX002 (ip), vehicle: saline with Tween-80
[8] = dose: 100.0 mg/kg/injection, schedule: Q01DX001 (ip), vehicle: saline with Tween-80
[9] = dose: 200.0 mg/kg/injection, schedule: Q01DX001 (ip), vehicle: saline with Tween-80
[10] = dose: 400.0 mg/kg/injection, schedule: Q01DX001 (ip), vehicle: saline with Tween-80
[11] = dose: 100.0 mg/kg/injection, schedule: Q01DX001 (ip), vehicle: saline
[12] = dose: 200.0 mg/kg/injection, schedule: Q01DX001 (ip), vehicle: saline
[13] = dose: 400.0 mg/kg/injection, schedule: Q01DX001 (ip), vehicle: saline
[14] = dose: 100.0 mg/kg/injection, schedule: Q04DX003 (ip), vehicle: saline
[15] = dose: 200.0 mg/kg/injection, schedule: Q04DX003 (ip), vehicle: saline
[16] = dose: 100.0 mg/kg/injection, schedule: Q01DX001 (ip), vehicle: Klucel (hydroxypropylcellulose) (HPC)
[17] = dose: 200.0 mg/kg/injection, schedule: Q01DX001 (ip), vehicle: Klucel (hydroxypropylcellulose) (HPC)
[18] = dose: 100.0 mg/kg/injection, schedule: Q04DX003 (ip), vehicle: Klucel (hydroxypropylcellulose) (HPC)
[19] = dose: 200.0 mg/kg/injection, schedule: Q04DX003 (ip), vehicle: Klucel (hydroxypropylcellulose) (HPC)
[20] = dose: 400.0 mg/kg/injection, schedule: Q04DX003 (ip), vehicle: Klucel (hydroxypropylcellulose) (HPC)
[21] = dose: 75.0 mg/kg/injection, schedule: Q01DX001 (ip), vehicle: saline
[22] = dose: 150.0 mg/kg/injection, schedule: Q01DX001 (ip), vehicle: saline
[23] = dose: 300.0 mg/kg/injection, schedule: Q01DX001 (ip), vehicle: saline
[24] = dose: 100.0 mg/kg/injection, schedule: Q01DX009 (ip), vehicle: Klucel (hydroxypropylcellulose) (HPC)
[25] = dose: 200.0 mg/kg/injection, schedule: Q01DX009 (ip), vehicle: Klucel (hydroxypropylcellulose) (HPC)

Measured: T/C

COc1cc(N)c2ncsc2c1
inactive: [1] 97 % of control | [2] 94 % of control | dose: 200.0 mg/kg/injection, schedule: Q01DX009 (ip), vehicle: saline 102 % of control | [3] 88 % of control | [4] 91 % of control

Cc1ccc(/C(C#N)=C/c2cccc([N+](=O)[O-])c2)cc1
inactive: [5] 95 % of control | [6] 88 % of control | [7] 98 % of control

CCCCCCCCCCCCC1C2CCCCC2CC2CCCCC21 (stereo not given)
inactive: [8] 94 % of control | [9] 94 % of control | [10] 96 % of control

O=C(OCc1cnccn1)c1cnccn1
inactive: [11] 107 % of control | [12] 94 % of control | [13] 100 % of control

CCCN1C(c2ccccc2)=CN(Cc2ccccc2)C=C1c1ccccc1
inactive: [2] 95 % of control | [3] 103 % of control | [4] 106 % of control

CCS(=O)(=O)N1CCCC(C)C1 (stereo not given)
inactive: [5] 105 % of control | [6] 92 % of control | [7] 92 % of control

CCCCCCCCCCCCCCCC(=O)N(CCC#N)c1ccc(N(CCC#N)C(=O)CCCCCCCCCCCCCCC)cc1
inactive: [8] 93 % of control | dose: 100.0 mg/kg/injection, schedule: Q01DX009 (ip), vehicle: saline with Tween-80 86 % of control | dose: 100.0 mg/kg/injection, schedule: Q04DX003 (ip), vehicle: saline with Tween-80 104 % of control | [9] 98 % of control | dose: 200.0 mg/kg/injection, schedule: Q01DX009 (ip), vehicle: saline with Tween-80 88 % of control | dose: 200.0 mg/kg/injection, schedule: Q04DX003 (ip), vehicle: saline with Tween-80 94 % of control | [10] 94 % of control | dose: 400.0 mg/kg/injection, schedule: Q01DX009 (ip), vehicle: saline with Tween-80 86 % of control | dose: 400.0 mg/kg/injection, schedule: Q04DX003 (ip), vehicle: saline with Tween-80 93 % of control

CC(C)(C)C12N=NCC1C(=O)C1(C(C)(C)C)OC1C2=O (stereo not given)
inactive: [8] 102 % of control | [9] 97 % of control | [10] 94 % of control

Cc1nc(=O)ccn1Cc1ccccc1
inactive: [14] 101 % of control | [15] 101 % of control | dose: 400.0 mg/kg/injection, schedule: Q04DX003 (ip), vehicle: saline 96 % of control

N#CN=C([S-])[S-].N#CN=C([S-])[S-].[Cu]
inactive: dose: 6.25 mg/kg/injection, schedule: Q01DX009 (ip), vehicle: saline 102 % of control | dose: 12.5 mg/kg/injection, schedule: Q01DX009 (ip), vehicle: saline 96 % of control | dose: 25.0 mg/kg/injection, schedule: Q01DX009 (ip), vehicle: saline 93 % of control

O=c1cc[nH]c2cc(Cl)ccc12
inactive: dose: 50.0 mg/kg/injection, schedule: Q01DX009 (ip), vehicle: saline 102 % of control | [1] 97 % of control

O=C(COc1ccc(Cl)c(Cl)c1)NCc1cc[n+](Cc2ccc(S(=O)(=O)F)cc2)cc1
inactive: [16] 95 % of control | [17] 95 % of control

CN(/N=N/c1nc[nH]c1C(=O)NN)C1CCCCC1
inactive: dose: 50.0 mg/kg/injection, schedule: Q01DX001 (ip), vehicle: other 95 % of control | dose: 100.0 mg/kg/injection, schedule: Q01DX001 (ip), vehicle: other 101 % of control | dose: 200.0 mg/kg/injection, schedule: Q01DX001 (ip), vehicle: other 98 % of control

CCOC(=O)c1cnc(SC)nc1Nc1ccc(Cl)c(Cl)c1
inactive: [16] 97 % of control | [17] 96 % of control | dose: 400.0 mg/kg/injection, schedule: Q01DX001 (ip), vehicle: Klucel (hydroxypropylcellulose) (HPC) 97 % of control

O=C1NCCN1c1ccccn1
inactive: [14] 100 % of control | [15] 97 % of control

O=S(=O)(O)C(I)I
inactive: dose: 6.25 mg/kg/injection, schedule: Q01DX001 (ip), vehicle: saline 103 % of control | dose: 12.5 mg/kg/injection, schedule: Q01DX001 (ip), vehicle: saline 100 % of control | dose: 25.0 mg/kg/injection, schedule: Q01DX001 (ip), vehicle: saline 98 % of control and 100 % of control | [11] 103 % of control

O=C(c1ccccc1)c1ccc(Oc2ccc(C(=O)c3ccccc3)cc2)cc1
inactive: dose: 75.0 mg/kg/injection, schedule: Q04DX003 (ip), vehicle: Klucel (hydroxypropylcellulose) (HPC) 94 % of control | [18] 101 % of control | dose: 150.0 mg/kg/injection, schedule: Q04DX003 (ip), vehicle: Klucel (hydroxypropylcellulose) (HPC) 96 % of control | [19] 96 % of control | dose: 300.0 mg/kg/injection, schedule: Q04DX003 (ip), vehicle: Klucel (hydroxypropylcellulose) (HPC) 107 % of control | [20] 95 % of control

O=S(=O)(/N=C1\C=CC=C\C1=N/S(=O)(=O)c1ccccc1)c1ccccc1
inactive: [8] 103 % of control | [9] 100 % of control | [10] 92 % of control

ClCCC[Si](Cl)(Cl)Cl
inactive: [21] 109 % of control | [22] 107 % of control | [23] 100 % of control

COc1cccc(/C=C/c2nccc3ccccc23)c1OC
inactive: [24] 90 % of control | [18] 106 % of control | [25] 91 % of control | [19] 98 % of control | dose: 400.0 mg/kg/injection, schedule: Q01DX009 (ip), vehicle: Klucel (hydroxypropylcellulose) (HPC) 91 % of control | [20] 90 % of control

CN(C)CCC(CCC(=O)O)(C(=O)O)c1ccccc1 (stereo not given)
inactive: [21] 98 % of control | [22] 96 % of control | [23] 90 % of control

C[N+](C)=Cc1c[nH]c2ccccc12
inactive: dose: 9.38 mg/kg/injection, schedule: Q01DX001 (ip), vehicle: steriod suspending solution 98 % of control | dose: 18.75 mg/kg/injection, schedule: Q01DX001 (ip), vehicle: steriod suspending solution 94 % of control | dose: 37.5 mg/kg/injection, schedule: Q01DX001 (ip), vehicle: steriod suspending solution 98 % of control

COC(=O)c1cc(C)[nH]c2c(C)cc3nc4ccccc4c3c12
inactive: dose: 50.0 mg/kg/injection, schedule: Q01DX001 (ip), vehicle: saline 95 % of control | [11] 98 % of control | [12] 101 % of control | [13] 104 % of control

Cn1c(=O)c2[nH]c(Br)nc2n(C)c1=O
inactive: [24] 90 % of control | [18] 98 % of control | [25] 93 % of control | [19] 111 % of control | [20] 106 % of control

O=C1C(c2ccc(Br)cc2)=C(c2ccccc2)c2c(-c3ccccc3)cc(Br)c(-c3ccccc3)c21
inactive: [8] 90 % of control | [9] 90 % of control | [10] 87 % of control
